Measured values taken from US20190071416A1, “COMPOUNDS FOR TREATMENT OF CANCER AND EPIGENETICS” (Agency For Science, Technology and Research, priority 2015, published 2019).

The molecules below were run against T1, SMYD3 (Homo sapiens, UniProt Q9H7B4) (assay: SMYD3 biochemical assay (MTase-Glo, MAP3K2 peptide substrate)). Conditions: Table 3; MTase assay, MAP3K2 peptide substrate; read-out: IC50.
T1 sequence (Q9H7B4 1-428): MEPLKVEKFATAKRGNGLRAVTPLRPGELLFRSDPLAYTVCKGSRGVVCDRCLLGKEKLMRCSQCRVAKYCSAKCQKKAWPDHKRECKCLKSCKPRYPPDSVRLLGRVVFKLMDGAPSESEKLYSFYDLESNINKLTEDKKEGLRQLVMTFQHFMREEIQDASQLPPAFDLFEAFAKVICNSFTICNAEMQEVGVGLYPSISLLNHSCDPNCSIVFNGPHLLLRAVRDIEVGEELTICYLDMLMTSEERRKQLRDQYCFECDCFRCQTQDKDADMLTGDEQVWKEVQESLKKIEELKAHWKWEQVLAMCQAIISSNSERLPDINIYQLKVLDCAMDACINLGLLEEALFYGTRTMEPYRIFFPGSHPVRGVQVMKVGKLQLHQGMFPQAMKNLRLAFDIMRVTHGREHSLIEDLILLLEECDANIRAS
Method in brief: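 Luminescent readout of SAH production (coupled SAH→ATP conversion, MTase-Glo) after SMYD3 reacted 30 min at room temperature with 1.0 µM SAM and 10 µM MAP3K2 peptide, both final. Non-linear regression gave IC50 values.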

IC50 [nM]	SMILES
1200	CCCOC(=O)N1CCN(C(=O)c2ccc3c(Cl)c4c(nc3c2)CCC(CN)C4)CC1 (centres unmarked) [A045, Propyl 4-(7-(aminomethyl)-9-chloro-5,6,7,8-tetrahydroacridine-3-carbonyl)piperazine-1-carboxylate]
380	CCCOC(=O)N1CCN(C(=O)c2ccc3c(Cl)cc(-c4ccc5nc(C)sc5c4)nc3c2)CC1 [B208, Propyl 4-(4-chloro-2-(2-methylbenzo[d]thiazol-6-yl)quinoline-7-carbonyl)piperazine-1-carboxylate]
14	CCCOC(=O)N1CCN(C(=O)c2ccc3c(Cl)cc(-c4ccc(F)c(OC)c4)nc3c2)C[C@H]1C [B088, Propyl (R)-4-(4-chloro-2-(4-fluoro-3-methoxyphenyl)quinoline-7-carbonyl)-2-methylpiperazine-1-carboxylate]
180	CCCOC(=O)N1CCN(C(=O)c2ccc3c(Cl)c4c(nc3c2)C(C)CCC4)CC1 (centres unmarked) [A118, Propyl 4-(9-chloro-5-methyl-5,6,7,8-tetrahydroacridine-3-carbonyl)piperazine-1-carboxylate]
770	CCCOC(=O)N1CCN(C(=O)c2ccc3c(Cl)cc(-c4cc(C)n(C)c4CN)nc3c2)CC1 [B227, Propyl 4-(2-(2-(aminomethyl)-1,5-dimethyl-1H-pyrrol-3-yl)-4-chloroquinoline-7-carbonyl)piperazine-1-carboxylate]
99	CCCOC(=O)N1CCN(C(=O)c2ccc3c(Cl)cc(-c4ccsc4)nc3c2)CC1 [B148, Propyl 4-(4-chloro-2-(thiophen-3-yl)quinoline-7-carbonyl)piperazine-1-carboxylate]
570	CCCOC(=O)N1CCN(C(=O)c2ccc3c(Cl)c4c(nc3c2)CC(c2ncccc2F)CC4)[C@@H](C)C1 (stereo partly drawn) [A100, Propyl (3S)-4-(9-chloro-6-(3-fluoropyridin-2-yl)-5,6,7,8-tetrahydroacridine-3-carbonyl)-3-methylpiperazine-1-carboxylate]
140	CCCOC(=O)N1CCN(C(=O)c2ccc3c(Cl)cc(-c4cccc5[nH]cnc45)nc3c2)CC1 [B187, Propyl 4-(2-(1H-benzo[d]imidazol-4-yl)-4-chloroquinoline-7-carbonyl)piperazine-1-carboxylate]
3600	CCCOC(=O)N1CCN(C(=O)c2ccc3c(Cl)cc(-c4ccc(C(=O)O)c(C)c4)nc3c2)CC1 [B137, 4-(4-Chloro-7-(4-(propoxycarbonyl)piperazine-1-carbonyl)quinolin-2-yl)-2-methylbenzoic acid]
91	CCCOC(=O)N1CCN(C(=O)c2ccc3c(Cl)cc(-c4cccc(CN)c4)nc3c2)CC1 [B039, Propyl 4-(2-(3-(aminomethyl)phenyl)-4-chloroquinoline-7-carbonyl)piperazine-1-carboxylate]
4900	C[C@H]1CN(C(=O)OCCF)CCN1C(=O)c1ccc2c(Cl)cc(C3CC3)nc2c1 [B260, 2-Fluoroethyl (S)-4-(4-chloro-2-cyclopropylquinoline-7-carbonyl)-3-methylpiperazine-1-carboxylate]
39	NCc1cc(-c2cc(Cl)c3ccc(C(=O)N4CCN(C(=O)c5cn(C6CC6)nn5)CC4)cc3n2)ccc1F [E019, (2-(3-(Aminomethyl)-4-fluorophenyl)-4-chloroquinolin-7-yl)(4-(1-cyclopropyl-1H-1,2,3-triazole-4-carbonyl)piperazin-1-yl)methanone]
280	CCCOC(=O)N1CCN(C(=O)c2ccc3c(Cl)c(C)c(-c4ccc(OC)cc4)nc3c2)CC1 [B031, Propyl 4-(4-chloro-2-(4-methoxyphenyl)-3-methylquinoline-7-carbonyl)piperazine-1-carboxylate]
270	CCCOC(=O)N1CCN(C(=O)c2ccc3c(Cl)c(C)c(-c4ccc(OC)cc4)nc3c2)[C@@H](C)C1 [B026, Propyl (S)-4-(4-chloro-2-(4-methoxyphenyl)-3-methylquinoline-7-carbonyl)-3-methylpiperazine-1-carboxylate]
